“Also recorded” adds a separate entry of the source.
What was measured:
dengue virus [1] = test: Extracellular and intracellular virus quantification in Huh7 cells; assay type: cell-based; settings: IC90 dose (spautin-1 2.4 μM, vandetanib 3.6 μM), Huh7, 24 hpi
Description: (§1) FIG 5 Vandetanib and spautin-1 inhibit dengue maturation and egress in a VPS34-independent manner. […] Cells were pretreated for 1 h, infected for 1 h at an MOI of 0.5 PFU/cell, and posttreated for an additional 23 h. N = 4, one-way ANOVA with Dunnett’s multiple-comparison test. ns, not significant (P > 0.05); **, P < 0.01; ****, P < 0.0001. (C) Huh7 cells transfected with a luciferase-expressing RNA replicon were treated with 3 μM vandetanib (orange) or 1% DMSO vehicle control (black) for 1 h prior to transfection and up to 52 h posttransfection. Luciferase intensity was quantified as a measure of viral protein abundance. Luciferase intensity was shown as relative light units (RLU). The use of an RNA replicon that is directly transfected into cells reflects only translation and RNA replication steps of viral infection, not viral packaging or cell exit. N = 4, two-way ANOVA with Sikak’s multiple-comparison test. […] (D) VPS34 was not required for spautin-1 or vandetanib anti-dengue activity. Wild-type and VPS34 knockout Huh7 cells were treated with 5 μM spautin-1, 5 μM vandetanib, or DMSO. Cells were pretreated, infected at an MOI of 0.5, and posttreated as described above for panels A and B. At 24 hpi, cellular supernatant was collected and titered by plaque assay. N ≥ 3. One-way ANOVA with Dunnett’s multiple-comparison test; *, P < 0.05; **, P < 0.01; ***, P < 0.001; ****, P < 0.0001.
After 1 h, virus inoculum was aspirated and replaced with medium containing compounds or 1% DMSO. After 24-h total infection, extracellular virus was collected in cellular supernatant and quantified by plaque assay. To collect intracellular virus, cells were washed with PBS, incubated for 3 min at 4°C with high-salt buffer (1 M NaCl, 50 mM sodium bicarbonate [pH 9.5]) to detach cell-associated extracellular virus ([63]), washed twice with PBS, detached with 0.25% trypsin-EDTA, and isolated by centrifugation (500 × g, 5 min, 4°C). Infected cell pellets were resuspended in 750 μl cell culture medium, lysed by repeated freeze/thaw in liquid nitrogen followed by 37°C water bath. Debris was removed by centrifugation (3,200 × g, 5 min, 4°C), and infectious intracellular virus was quantified by BHK-21 plaque assay.

[2] = test system: DENV-2 luciferase-expressing replicon; test: Replicon luciferase assay in Huh7 cells; assay type: cell-based, dengue virus; settings: 3 μM vandetanib, Huh7, up to 52 h posttransfection
Description: as §1, with “Wild-type and VPS34 knockout Huh7 cells were treated with 5 μM spautin-1, 5 μM vandetanib, or DMSO. Cells were pretreated, infected at an MOI of 0.5, and posttreated as described above for panels A and B. At 24 hpi, cellular supernatant was collected and titered by plaque assay. N ≥ 3. One-way ANOVA with Dunnett’s multiple-comparison test; *, P < 0.05; **, P < 0.01; ***, P < 0.001; ****, P < 0.0001.” left out
A dengue replicon derived from the dengue virus strain 16681 expressing Renilla luciferase and dengue nonstructural proteins has been previously established ([7], [64]). […] Transfected cells were harvested and analyzed using the Renilla luciferase assay system (Promega BioSystems). Luciferase intensity was measured with a GloMax luminometer (10-s signal integration; Promega BioSystems).

dengue virus [3] = test: Initial screening of hit compounds for anti-dengue activity in tissue culture cells (Table S1); assay type: cell-based; settings: viral titer relative to vehicle, tissue culture cell lines (BHK-21 48 hpi, Fig. S1; Huh7, Fig. 2C, 3C, 4C)
dengue virus [4] = test: Antiviral activity in VPS34 knockout Huh7 cells; assay type: cell-based; settings: 5 μM compound, MOI 0.5, 24 hpi
Description: FIG 5 Vandetanib and spautin-1 inhibit dengue maturation and egress in a VPS34-independent manner. […] Cells were pretreated for 1 h, infected for 1 h at an MOI of 0.5 PFU/cell, and posttreated for an additional 23 h. N = 4, one-way ANOVA with Dunnett’s multiple-comparison test. ns, not significant (P > 0.05); **, P < 0.01; ****, P < 0.0001. (C) Huh7 cells transfected with a luciferase-expressing RNA replicon were treated with 3 μM vandetanib (orange) or 1% DMSO vehicle control (black) for 1 h prior to transfection and up to 52 h posttransfection. Luciferase intensity was quantified as a measure of viral protein abundance. Luciferase intensity was shown as relative light units (RLU). The use of an RNA replicon that is directly transfected into cells reflects only translation and RNA replication steps of viral infection, not viral packaging or cell exit. N = 4, two-way ANOVA with Sikak’s multiple-comparison test. […] (D) VPS34 was not required for spautin-1 or vandetanib anti-dengue activity. Wild-type and VPS34 knockout Huh7 cells were treated with 5 μM spautin-1, 5 μM vandetanib, or DMSO. Cells were pretreated, infected at an MOI of 0.5, and posttreated as described above for panels A and B. At 24 hpi, cellular supernatant was collected and titered by plaque assay. N ≥ 3. One-way ANOVA with Dunnett’s multiple-comparison test; *, P < 0.05; **, P < 0.01; ***, P < 0.001; ****, P < 0.0001. […]

COc1cc2c(Nc3ccc(Br)cc3F)ncnc2cc1OCC1CCN(C)CC1 [Vandetanib, vandetanib]
Extracellular viral titer (dengue virus [1]): significantly reduced; also recorded: reduced extracellular virus
Infectious intracellular virus (dengue virus [1]): unchanged; also recorded: abundant intracellular virus
Luciferase production of replicon [2]: no effect on luciferase production; also recorded: no significant differences
Antiviral (dengue virus [3]): ++ (moderately antiviral, with titer between 5 and 20% of vehicle)
Antiviral activity in VPS34 knockout cells (dengue virus [4]): retained significant antiviral activity; also recorded: retained their ability to limit dengue virus egress
